≈ marks a conversion by molar mass, not a printed value.
conditions: buffer; pH 7.4; 200.0 µM

Compared with Cc1ccc(S(=O)(=O)N2CCN(c3ccc([N+](=O)[O-])cn3)CC2)cc1, CC1(c2ccccc2)NC(=O)N(CC(=O)N2CCN(S(=O)(=O)c3c(F)cccc3F)CC2)C1=O (centres undefined) is higher in solubility kinetic: less than 0.2 µg/mL for the first, 25 µg/mL (≈ 50.8 µM) for the second.

First: Cc1cccc(C(=O)OCC(=O)N2CCCC2=O)c1[N+](=O)[O-]
Second: Cc1ccsc1C(=O)OCC(=O)N1CCc2ccccc2C1
The solubility kinetic of the first is higher: greater than 45.9 µg/mL for the first, 34.6 µg/mL (≈ 110 µM) for the second.

First: Cc1cccc(N2C(=O)C(O)=C(C(=O)c3cccs3)C2c2ccccc2)n1 (centres undefined)
Second: O=C(Nc1ccc(NC(=O)c2cccs2)cc1Cl)c1ccco1
The solubility kinetic of the first is 48-fold higher: 53 µg/mL (≈ 141 µM) for the first, 1.1 µg/mL (≈ 3.17 µM) for the second.

CCCCCCCc1c(O)nc(SCCN(C)C)[nH]c1=O.Cl and CC(=O)Nc1c(O)nc(C)[nH]c1=O cannot be ordered by solubility kinetic: greater than 52.5 µg/mL for the first, greater than 27.5 µg/mL for the second.

C/C(=N\NC(N)=O)c1c(O)n(C)c(=O)n(C)c1=O and Cc1cc(NC(=O)C2CC(=O)N(c3cccc(C)c3C)C2)no1 (centres undefined) cannot be ordered by solubility kinetic: greater than 38.3 µg/mL for the first, greater than 47 µg/mL for the second.

First: N#Cc1c(-c2ccc3c(c2)OCO3)cc[nH]c1=O
Second: CC(C)[C@H](NC(=O)c1ccccc1)C(=O)OCC(=O)NCc1ccc2c(c1)OCO2
The solubility kinetic of the first is lower: 2.3 µg/mL (≈ 9.57 µM) for the first, greater than 61.9 µg/mL for the second.

NC(Cc1c[nH]c2ccccc12)C(=O)NCc1ccco1 (centres undefined) and O=C(CN1C(=O)c2ccc([N+](=O)[O-])cc2C1=O)NCc1ccco1 cannot be ordered by solubility kinetic: greater than 42.5 µg/mL for the first, greater than 49.4 µg/mL for the second.

Compared with Cc1ccc(NC(=O)NCc2cccnc2)cc1, COc1cc([N+](=O)[O-])ccc1NC(=O)NCc1cccnc1 is lower in solubility kinetic: greater than 36.2 µg/mL for the first, 17 µg/mL (≈ 56.2 µM) for the second.

N#Cc1cccc(NC(=O)COC(=O)c2ccc[n+]([O-])c2)c1 and O=C(COC(=O)Cc1ccsc1)Nc1ccccc1Cl cannot be ordered by solubility kinetic: greater than 44.6 µg/mL for the first, greater than 46.5 µg/mL for the second.

O=C(COc1ccc([N+](=O)[O-])cc1Cl)NCCN1C(=O)CSC1=O and Cc1cc([N+](=O)[O-])ccc1NC(=O)CCC(=O)N1CCCCCC1 cannot be ordered by solubility kinetic: greater than 56.1 µg/mL for the first, greater than 50 µg/mL for the second.

First: CC(C)CC(OC(=O)c1nsc(Cl)c1Cl)C(=O)NC1CCCC1 (centres undefined)
Second: COc1ccc2c(C)cc(SCC(=O)NC3CCCC3)nc2c1
The solubility kinetic of the first is 3.4-fold higher: 22.4 µg/mL (≈ 59.1 µM) for the first, 6.6 µg/mL (≈ 20 µM) for the second.

First: CCCCNC(=S)N1CCC(Cc2ccccc2)CC1
Second: O=C1N[C@@H](Cc2ccccc2)C(=O)N2CCC[C@@H]12
The solubility kinetic of the first is lower: 6.2 µg/mL (≈ 21.3 µM) for the first, greater than 36.6 µg/mL for the second.

First: CC(C)c1ccc(C(=O)NC(=S)Nc2ccc3[nH]c(=O)[nH]c3c2)cc1
Second: COC(=O)c1ccc(NC(=S)NC(=O)c2cccnc2)cc1
The solubility kinetic of the first is 7.4-fold lower: 0.5 µg/mL (≈ 1.41 µM) for the first, 3.7 µg/mL (≈ 11.7 µM) for the second.

Compared with Cc1cc(C)c(C#N)c(N2CCN(c3ccccc3)CC2)n1, C/C(=N/O)c1cccc(N2Cc3ccccc3C2)c1 is 5.8-fold higher in solubility kinetic: 3.8 µg/mL (≈ 13 µM) for the first, 22.2 µg/mL (≈ 88 µM) for the second.

Going from COc1ccc(/C=C2\CCc3ccccc3C2=O)cc1CN1CCOCC1 to COc1cc(C(=S)N2CCOCC2)ccc1OC(=O)c1ccccc1C, the solubility kinetic falls from 23.9 µg/mL (≈ 65.8 µM) to 10.3 µg/mL (≈ 27.7 µM) (2.3-fold).

COc1ccccc1OCC#CCN1CCCC1.O=C(O)C(=O)O and COc1ccccc1CN1C(=O)CNC1=S cannot be ordered by solubility kinetic: greater than 50.3 µg/mL for the first, greater than 35.4 µg/mL for the second.

Compared with Fc1ccc2c(c1)C1OCCCC1C(c1ccccc1)N2 (centres undefined), NS(=O)(=O)c1cccc(NC(=O)Nc2ccccc2)c1 is higher in solubility kinetic: less than 0.6 µg/mL for the first, greater than 43.7 µg/mL for the second.

CC(=O)Nc1ccc(NC(=S)NC(=O)/C=C/c2ccco2)cc1 and CC(OC(=O)/C(C#N)=C/c1ccco1)C(=O)N(C)c1ccccc1 (centres undefined) are within 1.5-fold of each other in solubility kinetic: 32.3 µg/mL (≈ 98.1 µM) for the first, 47.8 µg/mL (≈ 147 µM) for the second.

Going from COc1ccc(-n2cnnc2SCC(=O)NC2CCCCC2)cc1 to O=C(CSc1ccc(Br)cc1)NC1CCCCCC1, the solubility kinetic falls from greater than 52 µg/mL to 3.4 µg/mL (≈ 9.93 µM).

First: COc1ccc2oc(C(=O)OCC(=O)NC3CC3)c(C)c2c1
Second: COc1ccc(C(=O)Nc2ccc(CN3CCS(=O)(=O)CC3)cc2)cc1
The solubility kinetic of the first is 7.9-fold higher: 10.3 µg/mL (≈ 34 µM) for the first, 1.3 µg/mL (≈ 3.47 µM) for the second.

First: Cc1cc(C)c(C)c(S(=O)(=O)NCCN2CCOCC2)c1C
Second: COc1ccc(NC(=O)Cc2ccc(C)c(C)c2)cc1S(=O)(=O)N1CCCCC1
The solubility kinetic of the first is 3.8-fold higher: 48.8 µg/mL (≈ 149 µM) for the first, 12.8 µg/mL (≈ 30.7 µM) for the second.

Compared with OC(c1nc2ccccc2[nH]1)C(O)c1nc2ccccc2[nH]1 (centres undefined), O/N=C/c1ccc2cccc(OCc3ccccc3)c2n1 is lower in solubility kinetic: greater than 44.1 µg/mL for the first, 2.1 µg/mL (≈ 7.55 µM) for the second.

Going from Cc1n(Cc2ccccc2)c2ccccc2[n+]1Cc1ccccc1.[Cl-] to Cc1onc(-c2ccccc2)c1CNC(=O)Nc1ccc(C(F)(F)F)cc1, the solubility kinetic falls from 51.9 µg/mL to 0.4 µg/mL (≈ 1.07 µM) (130-fold).

CN(CC(=O)NC1CCCC1)S(=O)(=O)c1cnc[nH]1 and CN(CC(=O)N1CCOCC1)S(=O)(=O)c1ccc2ccccc2c1 cannot be ordered by solubility kinetic: greater than 43 µg/mL for the first, greater than 52.3 µg/mL for the second.

First: CCN(CC)C(=S)Oc1c(Cl)cccc1Cl
Second: O=C(NCc1ccccc1)c1cnc(Cl)c(Cl)c1
The solubility kinetic of the first is 16-fold lower: 2.2 µg/mL (≈ 7.91 µM) for the first, 35.9 µg/mL (≈ 128 µM) for the second.

Going from Cc1nc2ccc(NC(=S)N3CCCC3)cc2nc1C to Cc1nc(-c2ccc(C(=O)Nc3cccc(F)c3)cc2)cs1, the solubility kinetic falls from 41.7 µg/mL (≈ 146 µM) to less than 0.3 µg/mL.

Cc1ccc(C(=O)NCCCNC(=O)c2ccccc2C)cn1 and Cc1ccccc1C(=O)c1c[nH]c(C(=O)N=CN(C)C)c1 cannot be ordered by solubility kinetic: greater than 46.7 µg/mL for the first, greater than 42.5 µg/mL for the second.

Nc1ccc(-c2cnc[nH]2)cc1[N+](=O)[O-] and Cc1ccnc(SC2CC(=O)N(c3ccc([N+](=O)[O-])cc3)C2=O)n1 (centres undefined) cannot be ordered by solubility kinetic: greater than 30.6 µg/mL for the first, greater than 51.7 µg/mL for the second.

O=C1OC(c2ccc(Br)cc2)=N/C1=C\c1ccco1 and CCOc1ccc2[nH]cc(C(=O)NCc3ccc(F)cc3)c(=O)c2c1 are within 1.5-fold of each other in solubility kinetic: 2.4 µg/mL (≈ 7.54 µM) for the first, 1.9 µg/mL (≈ 5.58 µM) for the second.

COc1cccc2sc(/N=C/N(C)C)nc12 showed a solubility kinetic of 33.6 µg/mL (≈ 143 µM).
